Laboratory results published in US20130071848A1 (priority 2011, published 2013).

Assays:
[1] = test system: wild-type mouse embryonic fibroblast (MEF) cells; assay: Uracil content of MEF genomial DNA by real-time PCR with Pfu WT-pol and Pfu V93Q-pol; format: cell-based; details: 100 μM 5FdUR, 4 days, mean ± SEM, practically undetectable
Description: (§1) Mouse Embryonic Fibroblast (MEF) genomial DNA. Wild type and ung^(−/−) MEF cells (34) were a generous gift from Dr. Hilde Nilsen, University of Oslo. MEF cells were cultured in DMEM+F12 HAM Mix (Sigma) supplemented with 10% Fetal Bovine Serum (Gibco), 1% Penicillin+Streptomycin (Gibco), 0.5 mM Sodium Pyruvate (Gibco), 1% 100× Non-Essential Amino Acids (Gibco). To obtain confluent cells 10^6 cells/T-75 flask were seeded. […] Genomial DNA was purified by MasterPure DNA Purification Kit (Epicentre). DNA was digested by EcoRI restriction enzyme (New England Biolabs) and separated on 1% agarose gel. […]
(§2) Synthetic and physiological samples purified from agarose gels were applied in series of either 2-fold or 10-fold dilution steps. […] Melting point of the products was measured after a final denaturation at 95° C. for 1 min by heating from 55° C. to 95° C. […] Non-template control was measured in all cases. […] Cq values were determined after the manual setting of threshold level in the early exponential phase of the PCR amplification. […] Efficiency was calculated from the following equation: E=10^(−1/M)−1, where M is the slope of the linear curve and E is the efficiency. […] At each measured CqWt value the shift between the linear curves of the reference and the putatively uracil containing samples was determined. […]

[2] = test system: ung−/− mouse embryonic fibroblast (MEF) cells; assay: as above; format: cell-based; details: 100 μM 5FdUR, 4 days, mean ± SEM
Description: as §1, §2

[3] = test system: BL21(DE3)ung-151 E. coli cells; assay: Uracil content of E. coli genomial DNA by real-time PCR with Pfu WT-pol and Pfu V93Q-pol; format: cell-based, Escherichia coli; details: early log phase (OD600=0.5), mean ± SEM, untreated 537±37
Description: Escherichia coli genomial DNA. XL1-blue, BL21(DE3)ung-151 and CJ236 E. coli strains were propagated in LB media at 37° C. and were harvested at the early log phase (OD600=0.5) or at saturated phase (overnight culture). BL21(DE3)ung-151 cells grown in the presence of 30.7 or 61.3 μM 5-fluoro-2′-deoxyuridine (5FdUR) (Sigma-Aldrich) were harvested at the early log phase. Genomial DNA was purified by MasterPure DNA Purification Kit (Epicentre) following the instructions of the manufacturer. The DNA was digested by NdeI restriction enzyme (New England Biolabs) and was separated on 1% agarose gel. […]
as §2

[4] = test system: ung−/− MEF cells; assay: Viability assay of MEF cells (AlamarBlue); format: cell-based, mouse; details: 0-1000 nM 5FdUR, 4 days, AlamarBlue fluorescence normalized to untreated
Description: (§3) Wild type and ung^(−/−) MEF cells were seeded onto 96-well plates in DMEM+F12 HAM Mix (Sigma) supplemented with 10% Fetal Bovine Serum (Gibco), 1% Penicillin+Streptomycin (Gibco), 0.5 mM Sodium Pyruvate (Gibco), 1% 100× Non-Essential Amino Acids (Gibco). 2000 cells were seeded in a well containing 100 μl medium. After 4 days 10 μl AlamarBlue (Biosource) was added, incubated for 3 hours at 37° C. and fluorescence was measured by Victor2 140 Multilabel counter at 485 nm excitation and 530 nm emission. Samples in triplicates were treated with different concentration of 5FdUR (0, 1, 10, 20, 50, 100, 250, 500, 1000 nM) and viability was assessed. Measurements were repeated three-times. Fluorescence intensity values measured from the wells was normalized to the intensity detected in samples grown in lack of 5FdUR.

[5] = test system: wild type MEF cells; assay: Viability assay of MEF cells (AlamarBlue); format: cell-based, mouse; details: 0-1000 nM 5FdUR, 4 days, AlamarBlue fluorescence normalized to untreated
Description: as §3

With `O=c1[nH]c(=O)n([C@H]2C[C@H](O)[C@@H](CO)O2)cc1F` [5FdUR, 5-fluoro-2′-deoxyuridine] as the molecule, how does the “uracil content of genomial DNA” value [1] read?
The value was 40±38 deoxyuridine/million dNMP.

What about the “uracil content of genomial DNA” value [2] of the same molecule?
Its value is 341±87 deoxyuridine/million dNMP.

What about the “uracil content of genomial DNA” value ([3]; 30.7 μM 5FdUR) of the same molecule?
Its value is 653±55 deoxyuridine/million dNMP.

And the “uracil content of genomial DNA” value ([3]; 61.3 μM 5FdUR)?
The value was 770±54 deoxyuridine/million dNMP.

What about the viability [4] of the same molecule?
Its viability is “significant decrease in viability”.

What about the viability [5] of the same molecule?
Its viability is “significant decrease in viability”.
